Earlier results as cited in patent US8785426B1, “Testosterone gel compositions and related methods” (Upsher-Smith Laboratories, Inc., priority 2013, dated 2014).

Conditions: reported solubility

C[C@]12CC[C@H]3[C@@H](CCC4=CC(=O)CC[C@@]43C)[C@@H]1CC[C@@H]2O [Testosterone, 17-β-hydroxyandrost-4-en-3-one]
solubility in ethyl alcohol: 0.17 grams per gram ethyl alcohol
